Test results: the NIST ThermoML archive (doi:10.1021/je0302250)

What was measured:
[1] = 101.3 kPa, Liquid, Capillary tube (Ostwald / Ubbelohde) method
[2] = xn = mol fraction of the nth substance listed; conditions: 101.3 kPa, Liquid, Capillary tube (Ostwald / Ubbelohde) method

CN(CCO)CCO [N-methyldiethanolamine]
[1]
Conditions | viscosity [mPa·s]
313.15 K | 34.62
333.15 K | 14.38
353.15 K | 7.082
363.15 K | 5.277

CN(CCO)CCO [N-methyldiethanolamine] + O
viscosity [mPa·s], [2]
Conditions | x1 = 0.06 | x1 = 0.09 | x1 = 0.129 | x1 = 0.257 | x1 = 0.372 | x1 = 0.583 | x1 = 0.743 | x1 = 1
313.15 K | 1.94 | 3.115 | 5.108 | 15.18 | 24.78 | 34.79 | 35.92 | 34.62
333.15 K | 1.202 | 1.709 | 2.703 | 6.7 | 10.24 | 13.74 | 14.49 | 14.38
353.15 K | 0.813 | 1.127 | 1.63 | 3.472 | 4.873 | 6.569 | 7.084 | 7.082
363.15 K | 0.687 | 0.871 | 1.205 | 2.606 | 3.611 | 4.749 | 5.278 | 5.277

O [water] + CN(CCO)CCO
[2], x2 = 0
Conditions | viscosity [mPa·s]
313.15 K | 0.656
333.15 K | 0.476
353.15 K | 0.358
363.15 K | 0.305
